# Measurements: article PMC10781691, “Vertical pathway inhibition of receptor tyrosine kinases and BAD with synergistic efficacy in triple negative breast cancer” (NPJ Precision Oncology, 2024)
# Legend:
# BT549 cells [1] = test: AlamarBlue cell viability, 3D Matrigel culture; assay type: cell-based, human
# MDA-MB-231 cells [2] = test: Total cell number assay, 2D culture; assay type: cell-based, human
# Procedure: (§1) Fold difference was calculated. Data represent means ± SD (n = 3).
# BT549 cells [3] = test: Total cell number assay, 2D culture; assay type: cell-based, human
# Procedure: as §1
# MDA-MB-231 cells [4] = test: AlamarBlue assay IC50 (Supplementary Fig. 5A); assay type: cell-based; settings: Homo sapiens; MDA-MB-231, AlamarBlue assay
# Text: (§2) Ionization potential (I ) 7.21 eV
# (§3) Electron affinity (A) 4.79 eV
# (§4) Chemical potential (μ) 6.00 eV […]
# (§5) using AlamarBlue assay. Data represent means ± SD. (B) Cartoon representation of the compounds NPB (red) and NCK (black) (depicted in ball & stick model) docked to the BAD protein, occupying the same groove with the BAD Serine 99 residue (yellow) nearby. (C) 2D structure representation of compound NPB interacting with BAD protein residues. (D) Cartoon representation of docked compound and molecular electrostatic potential surfaces of NCK. The color code of the compound lies in the range of -0.121e0 to +0.121e0. Red and blue color in the MEP structure point to more electron rich and electron poor regions respectively. (E) The […]
# BT549 cells [5] = test: AlamarBlue assay IC50 (Supplementary Fig. 5A); assay type: cell-based; settings: Homo sapiens, BT-549
# Text: as §2, §3, §4, §5
# MDA-MB-231 cells [6] = test: Annexin V-PI apoptosis flow cytometry; settings: MDA-MB-231, 5 μM
# Text: Representative flow cytometry plots of Annexin-V and propidium iodide (PI) stained apoptotic
# or NPB using flow cytometry analysis. Annexin V-FITC staining is indicated on the x axis, and PI staining is indicated on the y axis. The lower left quadrants represent live cells, the lower right quadrants represent early apoptotic cells, the upper left quadrants represent necrotic cells, and the upper right quadrants display late apoptotic cells. Acquisition of Annexin V and PI data are presented as a percentage (%) in each quadrant. Early apoptotic cells are referred to as Annexin- V positive and late apoptotic cells are referred to as Annexin-V and PI double positive.
# MDA-MB-231 cells [7] = test: Cell cycle analysis by PI flow cytometry; assay type: cell-based, human; settings: MDA-MB-231, 5 μM
# Text: Fig. 3 NCK enhances apoptosis and impedes cell-cycle progression in TNBC cells. a Hallmark analysis of the differential expressed genes (DEGs). […] NES, normalized enrichment score. FDR, false discovery rate.
# Supplementary Figure 9: (A) Representative flow cytometry plots using PI staining for DNA
# or NPB using flow cytometry analysis.
# MDA-MB-231 xenografts [8] = test: Orthotopic xenograft, combination study; assay type: in vivo, BALB/c-nude mice; settings: for cells of human origin in lung sections (IHC staining of human HPRT): MDA-MB-231-engrafted mice; for % Regression: Complete Response (100%) / % Regression: Partial Response (>50%) / % Regression: Disease Progression: MDA-MB-231 xenograft; for % Regression: Disease Progression: day 21 (xenograft volume >100 mm^3); for lung metastasis incidence (mice with detectable lung hHPRT mRNA, qPCR): n = 6, vehicle 3 out of 6
# Procedure: In vivo bioluminescent imaging was performed to determine the incidence and metastatic burden of luciferase-labeled 4T1 cells. Mice were injected i.p. with 10 mg/ml of D-luciferin (Gold Biotechnology, MO, USA) and imaged using a PerkinElmer IVIS Spectrum system. PDX were generated as previously described by transplanting fresh fragments orthotopically into 8-week-old female nonobese diabetic (NOD)/severe combined immunodeficient (SCID) mice (Beijing Vital River Laboratory Animal Technology Co., Beijing, China) (P1, passage 1)[40]. The P1 xenografts were then fragmented, digested into single-cell suspension and implanted into mammary fat pad (100 μL PBS containing growth factor reduced 50% Matrigel) of NOD/SCID mice. Once orthotopic xenografts reached an approximate size of 100 mm^3, the mice were randomly divided into three groups (n = 8) for single drug studies and six groups (n = 6) for combination studies and Kaplan-Meier (KM) analyses. […] Animal body weight and xenograft size were measured daily using an electronic balance and a digital caliper, respectively. Xenograft volume (mm^3) was calculated by using the formula: 0.52 × length × [width]^2. Complete response (CR) was achieved if the average xenograft volume for the treatment group was unable to be determined for two or more consecutive measurements. Partial response (PR) was achieved if the average xenograft volume reduced to <50 mm^3 for two or more consecutive measurements. After 3-week drug treatment, all mice were sacrificed by CO2 inhalation. Tumor and vital organs were weighed and isolated for further analysis. IHC analysis of xenograft histology sections and quantitative polymerase chain reaction (qPCR) were performed as previously described.
# Data represent means ± SD. *P < 0.05, **P < 0.01, and ***P < 0.001.
# Data represent means ± SD (n=6). *P < 0.05, **P
# < 0.01, and ***P < 0.001.
# Abbreviations: ALT/GOT, alanine
# aminotransferase/ glutamic oxaloacetic transaminase; AST/GPT, aspartate aminotransferase/
# glutamic pyruvic transaminase; CREA, creatinine; UREA, urea; and ALB, albumin. Data
# represent means ± SD. *P < 0.05, **P < 0.01, and ***P < 0.001.
# BT549 cells [9] = test: Foci formation (crystal violet); settings: BT549, 5 μM each
# MDA-MB-231 xenografts [10] = test: Orthotopic xenograft, single drug study; assay type: in vivo, BALB/c-nude mice
# Procedure: Next, the in vivo efficacy of NCK was examined in mice injected orthotopically with MDA-MB-231 cells to form xenografts. When the xenograft volume reached 100 mm^3, mice were randomly grouped and injected i.p. with vehicle, NCK (5 mg/kg q.d.) or NCK (20 mg/kg q.d.) for 21 days.
# CSF-1R = system: CSF-1R; set-up: method as in SelleckChem; settings: ref SelleckChem; cited from earlier work
# VEGFR2 = settings: read-out: potency on VEGFR2; cited from earlier work
# [11] = Balb/c-nude mice, day 22, NCK 20 mg/kg, OSI 50 mg/kg, CRI 50 mg/kg
# [12] = day 21, NCK 20 mg/kg q.d., OSI-930 20 mg/kg q.d., Crizotinib 50 mg/kg b.i.w.
# [13] = serum, NCK 20 mg/kg, OSI 50 mg/kg, CRI 50 mg/kg
# [14] = NCK 5 and 20 mg/kg q.d. i.p. 21 days
compound,measurement,setting,value
"Oc1ccccc1C(c1cccnc1)N1CCN(c2cccc(Cl)c2Cl)CC1 (centres unmarked) [NCK, 2-((4-(2,3-dichlorophenyl)piperazin-1-yl)(pyridin-3-yl)methyl) phenol]",growth in 3D Matrigel,"BT549 cells [1]; BT549, 5 μM each",reduced cell growth in 3D Matrigel
same,fold IC50 difference NCK vs NPB,"BT549 cells [1]; BT549, 3D Matrigel",~ 8 fold
same,IC50,"BT549 cells [1]; Homo sapiens, BT-549, BT549, 3D Matrigel, AlamarBlue",309 nM
same,IC50,"MDA-MB-231 cells [2]; Homo sapiens, MDA-MB-231, 2% FBS",1010 nM
same,fold IC50 difference NCK vs NPB,"MDA-MB-231 cells [2]; MDA-MB-231, 2D",~ 3 fold
same,fold IC50 difference NCK vs NPB,"BT549 cells [3]; BT549, 2D",~ 2 fold
same,IC50,"BT549 cells [3]; Homo sapiens, BT-549, BT549, 2% FBS",1700 nM
same,IC50,MDA-MB-231 cells [4],4940 ± 2800 nM
same,IC50,BT549 cells [5],12100 ± 1360 nM
same,induction of apoptosis (early and late),MDA-MB-231 cells [6],more potent effect than NPB in inducing apoptosis
same,decrease in S-phase,MDA-MB-231 cells [7],15.68%
same,increase in G1-phase,MDA-MB-231 cells [7],17.75%
same,Relative Heart Weight,MDA-MB-231 xenografts [8]; [11],0.74±0.16%
same,Relative Kidney Weight,MDA-MB-231 xenografts [8]; [11],1.60±0.14%
same,Relative Lung Weight,MDA-MB-231 xenografts [8]; [11],2.39±0.57%
same,Relative Spleen Weight,MDA-MB-231 xenografts [8]; [11],0.77±0.14%
same,cells of human origin in lung sections (IHC staining of human HPRT),MDA-MB-231 xenografts [8],not in the lung sections
same,% Regression: Complete Response (100%),MDA-MB-231 xenografts [8]; day 21,33%
same,% Regression: Partial Response (>50%),MDA-MB-231 xenografts [8]; day 21,17%
same,% Regression: Disease Progression,MDA-MB-231 xenografts [8],50%
same,MKI67 positivity in xenograft vs vehicle,MDA-MB-231 xenografts [8]; NCK 20 mg/kg q.d.,significantly reduced MKI67 positivity
same,TUNEL scores in xenograft vs vehicle,MDA-MB-231 xenografts [8]; NCK 20 mg/kg q.d.,increased TUNEL scores
same,level of pBADSer99 in resected xenograft vs vehicle,MDA-MB-231 xenografts [8]; NCK 20 mg/kg q.d.,reduced the level of pBADSer99
same,complete regression of xenografts,MDA-MB-231 xenografts [8]; [12],33.33%
same,complete regression of xenografts (number of xenografts),MDA-MB-231 xenografts [8]; [12],2/6
same,"lung metastasis incidence (mice with detectable lung hHPRT mRNA, qPCR)",MDA-MB-231 xenografts [8],1/6
same,ALB,MDA-MB-231 xenografts [8]; [13],28.48 ± 3.45 g/L
same,ALT/GOT,MDA-MB-231 xenografts [8]; [13],75.66±23.55 U/L
same,AST/GPT,MDA-MB-231 xenografts [8]; [13],296.04±102.48 U/L
same,CREA,MDA-MB-231 xenografts [8]; [13],23.49 ± 3.02 µmol/L
same,UREA,MDA-MB-231 xenografts [8]; [13],14.01 ± 3.33 mmol/L
same,2D foci formation,BT549 cells [9],significantly attenuated the capacity for foci formation
same,xenograft volume and weight vs vehicle,MDA-MB-231 xenografts [10]; NCK 5 mg/kg q.d. i.p. 21 days,significantly reduced xenograft volume
same,xenograft volume and weight vs vehicle,MDA-MB-231 xenografts [10]; NCK 20 mg/kg q.d. i.p. 21 days,significantly reduced xenograft volume
same,MKI67 positivity in xenografts,MDA-MB-231 xenografts [10]; [14],decreased MKI67 positivity
same,TUNEL scores in xenografts,MDA-MB-231 xenografts [10]; [14],increased TUNEL scores
same,body weight vs vehicle,MDA-MB-231 xenografts [10]; [14],no significant change in body weight
same,pBADSer99 in resected xenografts (IHC) vs vehicle,MDA-MB-231 xenografts [10]; [14],significantly reduced pBADSer99
O=C(Nc1ccc(OC(F)(F)F)cc1)c1sccc1NCc1ccnc2ccccc12 [OSI-930],IC50,CSF-1R,15 nM
same,IC50,VEGFR2,9 nM
same,cells of human origin in lung sections (IHC staining of human HPRT),MDA-MB-231 xenografts [8],not in the lung sections
same,% Regression: Complete Response (100%),MDA-MB-231 xenografts [8]; day 21,0%
same,% Regression: Partial Response (>50%),MDA-MB-231 xenografts [8]; day 21,33%
same,% Regression: Disease Progression,MDA-MB-231 xenografts [8],67%
same,"lung metastasis incidence (mice with detectable lung hHPRT mRNA, qPCR)",MDA-MB-231 xenografts [8],none of the mice had lung metastasis
same,ALB,MDA-MB-231 xenografts [8]; [13],30.61 ± 0.84 g/L
same,ALT/GOT,MDA-MB-231 xenografts [8]; [13],81.99±27.99 U/L
same,AST/GPT,MDA-MB-231 xenografts [8]; [13],298.22±75.62 U/L
same,UREA,MDA-MB-231 xenografts [8]; [13],12.36 ± 6.01 mmol/L
same,2D foci formation,BT549 cells [9],significantly attenuated the capacity for foci formation
